What was measured:
oval-leafed pondweed = assay: Test Example 2: herbicidal activity, application during weed generation under submerged conditions (Table 17, symbol C); type: in vivo, oval-leafed pondweed (Monochoria vaginalis); conditions: AAH 320 g/ha; application during weed generation, submerged conditions
Method: (§1) [Test Example 2] Herbicidal Activity Test by Application during Weed Generation under Submerged Conditions After alluvial soil was placed into 1/10000 are of Wagner pot, water was poured and mixed to form a submerged condition having a water depth of 4 cm. Seeds of late watergrass, Japanese bulrush, and oval-leafed pondweed were sowed in a mixed manner in the aforementioned pot, and the pot was placed in a greenhouse at 25° C. to 30° C. for growth of the plants. When late watergrass, Japanese bulrush, and oval-leafed pondweed were grown to one leaf stage to two leaf stage, the emulsion agent of the compound of the present invention prepared according to Formulation Example 2 was diluted with water so as to achieve a predetermined herbicide amount, and the diluted emulsion agent was applied to the surface of the water. Three weeks after the herbicide application, the effect of the herbicide on each plant was evaluated according to the criteria of Test Example 1.

rice flat sedge = assay: Test Example 3: herbicidal effect by foliage application, Wagner pot (Table 18, symbol E); type: in vivo, rice flat sedge (Cyperus iria)
Outline: (§2)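 Plants were sown in alluvial soil held under 0.1–0.5 cm standing water and grown 14 days in a greenhouse at 25–30 °C. An emulsifiable formulation, water-diluted to the set dose, was then sprayed onto the foliage, and effects were scored three weeks later using previously defined criteria.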

velvetleaf [1] = assay: Test Example 5: herbicidal effect by foliage application, plastic box (Table 20, symbol M); type: in vivo, velvetleaf (Abutilon theophrasti); conditions: 320 g/ha
Outline: (§3)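 Foliar spray test: emulsion formulation diluted in water to a set application rate, sprayed onto 14-day-old plants raised in diluvial soil at 25° C to 30° C under glass. Both herbicidal effect and crop effect rated visually three weeks later.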

redroot pigweed [2] = assay: Test Example 5: herbicidal effect by foliage application, plastic box (Table 20, symbol N); type: in vivo, redroot pigweed (Amaranthus retroflexus); conditions: 320 g/ha
Outline: as §3

lambsquarters [3] = assay: Test Example 4: herbicidal effect by soil treatment (Table 19, symbol O); type: in vivo, lambsquarters (Chenopodium album); conditions: amount of applied herbicide 320 g/ha
Outline: (§4)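 Herbicidal effect was rated 3 weeks after treatment, using the scoring criteria of an earlier test. The compound, formulated as an emulsion and diluted in water to a set herbicide amount, had been sprayed uniformly on soil over freshly sown seeds. Growth took place in a greenhouse at 25° C. to 30° C.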

barnyard grass [4] = assay: Test Example 3: herbicidal effect by foliage application, Wagner pot (Table 18, symbol H); type: in vivo, barnyard grass (Echinochloa crus-galli)
Outline: as §2

southern crabgrass [5] = assay: Test Example 5: herbicidal effect by foliage application, plastic box (Table 20, symbol F); type: in vivo, southern crabgrass (Digitaria ciliaris); conditions: 320 g/ha
Outline: as §3

Japanese bulrush = assay: Test Example 2: herbicidal activity, application during weed generation under submerged conditions (Table 17, symbol B); type: in vivo, Japanese bulrush (Schoenoplectus juncoides); conditions: AAH 320 g/ha; application during weed generation, submerged conditions
Outline: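 Wagner pot, alluvial soil, 4 cm flood; mixed sowing of all species; greenhouse 25° C.–30° C. Emulsifiable formulation, water-diluted to predetermined dose, applied to paddy water at 1–2 leaf stage. Effect rated at 3 wk using the earlier test's scoring criteria.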

redroot pigweed [6] = assay: Test Example 4: herbicidal effect by soil treatment (Table 19, symbol N); type: in vivo, redroot pigweed (Amaranthus retroflexus); conditions: amount of applied herbicide 320 g/ha
Outline: as §4

velvetleaf [7] = assay: Test Example 4: herbicidal effect by soil treatment (Table 19, symbol M); type: in vivo, velvetleaf (Abutilon theophrasti); conditions: amount of applied herbicide 320 g/ha
Outline: as §4

Chinese sprangletop = assay: Test Example 3: herbicidal effect by foliage application, Wagner pot (Table 18, symbol D); type: in vivo, chinese sprangletop (Leptochloa chinensis)
Outline: as §2

late watergrass = assay: Test Example 2: herbicidal activity, application during weed generation under submerged conditions (Table 17, symbol A); type: in vivo, late watergrass (Echinochloa oryzicola); conditions: AAH 320 g/ha; application during weed generation, submerged conditions
Method: as §1

barnyard grass [8] = assay: Test Example 5: herbicidal effect by foliage application, plastic box (Table 20, symbol H); type: in vivo, barnyard grass (Echinochloa crus-galli); conditions: 320 g/ha
Outline: as §3

lambsquarters [9] = assay: Test Example 5: herbicidal effect by foliage application, plastic box (Table 20, symbol O); type: in vivo, lambsquarters (Chenopodium album); conditions: 320 g/ha
Outline: as §3

green foxtail [10] = assay: Test Example 5: herbicidal effect by foliage application, plastic box (Table 20, symbol G); type: in vivo, green foxtail (Setaria viridis); conditions: 320 g/ha
Outline: as §3

barnyard grass [11] = assay: Test Example 4: herbicidal effect by soil treatment (Table 19, symbol H); type: in vivo, barnyard grass (Echinochloa crus-galli); conditions: amount of applied herbicide 320 g/ha
Outline: as §4

green foxtail [12] = assay: Test Example 4: herbicidal effect by soil treatment (Table 19, symbol G); type: in vivo, green foxtail (Setaria viridis); conditions: amount of applied herbicide 320 g/ha
Outline: as §4

southern crabgrass [13] = assay: Test Example 4: herbicidal effect by soil treatment (Table 19, symbol F); type: in vivo, southern crabgrass (Digitaria ciliaris); conditions: amount of applied herbicide 320 g/ha
Outline: as §4

blackgrass = assay: Test Example 5: herbicidal effect by foliage application, plastic box (Table 20, symbol J); type: in vivo, blackgrass (Alopecurus myosuroides); conditions: 320 g/ha, foliage application after 14-day growth, evaluated three weeks after application
Outline: as §3

windgrass = assay: Test Example 5: herbicidal effect by foliage application, plastic box (Table 20, symbol L); type: in vivo, windgrass (Apera spica-venti); conditions: 320 g/ha, foliage application after 14-day growth, evaluated three weeks after application
Outline: as §3

chickweed = assay: Test Example 5: herbicidal effect by foliage application, plastic box (Table 20, symbol P); type: in vivo, common chickweed (Stellaria media); conditions: 320 g/ha, foliage application after 14-day growth, evaluated three weeks after application
Outline: as §3

persian speedwell = assay: Test Example 5: herbicidal effect by foliage application, plastic box (Table 20, symbol R); type: in vivo, Persian speedwell (Veronica persica); conditions: 320 g/ha, foliage application after 14-day growth, evaluated three weeks after application
Outline: as §3

wild oat = assay: Test Example 5: herbicidal effect by foliage application, plastic box (Table 20, symbol I); type: in vivo, wild oat (Avena fatua); conditions: 320 g/ha, foliage application after 14-day growth, evaluated three weeks after application
Outline: as §3

Italian ryegrass = assay: Test Example 5: herbicidal effect by foliage application, plastic box (Table 20, symbol K); type: in vivo, Italian ryegrass (Lolium multiflorum); conditions: 320 g/ha, foliage application after 14-day growth, evaluated three weeks after application
Outline: as §3

[14] = amount of applied herbicide 320 g/ha
[15] = foliage application, three weeks after application
[16] = foliage application after 14-day growth, evaluated three weeks after application

SMILES: Cc1ccc2sc(-c3ccc(OC(F)F)cc3)c(-c3c(O)c(C)nn(C)c3=O)c2c1 [2-459]
- herbicidal effect rating, C: oval-leafed pondweed (oval-leafed pondweed): 0 (Herbicidal rate of 5% or less (almost no effect))
- herbicidal effect on E: rice flat sedge (rice flat sedge; [14]): 0 (Herbicidal rate of 5% or less (almost no effect))
- M: velvetleaf, herbicidal effect grade (velvetleaf [1]; [15]): 4 (Herbicidal rate of 70% or more and less than 90%)
- N: redroot pigweed, herbicidal effect grade (redroot pigweed [2]; [15]): 4 (Herbicidal rate of 70% or more and less than 90%)
- herbicidal effect, O: lambsquarters (lambsquarters [3]): 4 (Herbicidal rate of 70% or more and less than 90%)
- herbicidal effect on H: barnyard grass (barnyard grass [4]; [14]): 3 (Herbicidal rate of 40% or more and less than 70%)
- F: southern crabgrass, herbicidal effect grade (southern crabgrass [5]; [15]): 0 (Herbicidal rate of 5% or less (almost no effect))
- herbicidal effect rating, B: Japanese bulrush (Japanese bulrush): 0 (Herbicidal rate of 5% or less (almost no effect))
- herbicidal effect, N: redroot pigweed (redroot pigweed [6]): 5 (Herbicidal rate of 90% or more (almost completely withered))
- herbicidal effect, M: velvetleaf (velvetleaf [7]): 1 (Herbicidal rate of 5% or more and less than 20%)
- herbicidal effect on D: Chinese sprangletop (Chinese sprangletop; [14]): 0 (Herbicidal rate of 5% or less (almost no effect))
- herbicidal effect rating, A: late watergrass (late watergrass): 3 (Herbicidal rate of 40% or more and less than 70%)
- H: barnyard grass, herbicidal effect grade (barnyard grass [8]; [15]): 0 (Herbicidal rate of 5% or less (almost no effect))
- O: lambsquarters, herbicidal effect grade (lambsquarters [9]; [15]): 4 (Herbicidal rate of 70% or more and less than 90%)
- G: green foxtail, herbicidal effect grade (green foxtail [10]; [15]): 0 (Herbicidal rate of 5% or less (almost no effect))
- herbicidal effect, H: barnyard grass (barnyard grass [11]): 0 (Herbicidal rate of 5% or less (almost no effect))
- herbicidal effect, G: green foxtail (green foxtail [12]): 0 (Herbicidal rate of 5% or less (almost no effect))
- herbicidal effect, F: southern crabgrass (southern crabgrass [13]): 0 (Herbicidal rate of 5% or less (almost no effect))

SMILES: Cc1ccc(-c2sc3c(Cl)cccc3c2-c2c(O)c(C)nn(C)c2=O)cc1 [4-019]
- herbicidal effect on J: blackgrass (evaluation grade 0-5) (blackgrass): 0 (Herbicidal rate of 5% or less (almost no effect))
- herbicidal effect rating, C: oval-leafed pondweed (oval-leafed pondweed): 0 (Herbicidal rate of 5% or less (almost no effect))
- herbicidal effect on L: windgrass (evaluation grade 0-5) (windgrass): 1 (Herbicidal rate of 5% or more and less than 20%)
- herbicidal effect on rice flat sedge (E) (rice flat sedge; 320 g/ha): 5 (Herbicidal rate of 90% or more (almost completely withered))
- herbicidal effect on M: velvetleaf (evaluation grade 0-5) (velvetleaf [1]; [16]): 5 (Herbicidal rate of 90% or more (almost completely withered))
- herbicidal effect on N: redroot pigweed (evaluation grade 0-5) (redroot pigweed [2]; [16]): 5 (Herbicidal rate of 90% or more (almost completely withered))
- herbicidal effect on barnyard grass (H) (barnyard grass [4]; 320 g/ha): 3 (Herbicidal rate of 40% or more and less than 70%)
- herbicidal effect on P: chickweed (evaluation grade 0-5) (chickweed): 5 (Herbicidal rate of 90% or more (almost completely withered))
- herbicidal effect on F: southern crabgrass (evaluation grade 0-5) (southern crabgrass [5]; [16]): 0 (Herbicidal rate of 5% or less (almost no effect))
- herbicidal effect rating, B: Japanese bulrush (Japanese bulrush): 0 (Herbicidal rate of 5% or less (almost no effect))
- herbicidal effect on R: persian speedwell (evaluation grade 0-5) (persian speedwell): 4 (Herbicidal rate of 70% or more and less than 90%)
- herbicidal effect on Chinese sprangletop (D) (Chinese sprangletop; 320 g/ha): 4 (Herbicidal rate of 70% or more and less than 90%)
- herbicidal effect rating, A: late watergrass (late watergrass): 4 (Herbicidal rate of 70% or more and less than 90%)
- herbicidal effect on H: barnyard grass (evaluation grade 0-5) (barnyard grass [8]; [16]): 0 (Herbicidal rate of 5% or less (almost no effect))
- herbicidal effect on O: lambsquarters (evaluation grade 0-5) (lambsquarters [9]; [16]): 1 (Herbicidal rate of 5% or more and less than 20%)
- herbicidal effect on G: green foxtail (evaluation grade 0-5) (green foxtail [10]; [16]): 1 (Herbicidal rate of 5% or more and less than 20%)
- herbicidal effect on I: wild oat (evaluation grade 0-5) (wild oat): 3 (Herbicidal rate of 40% or more and less than 70%)
- herbicidal effect on K: Italian ryegrass (evaluation grade 0-5) (Italian ryegrass): 3 (Herbicidal rate of 40% or more and less than 70%)

Source: patent US20230085307A1, “PYRIDAZINONE COMPOUND AND HERBICIDE” (NISSAN CHEMICAL CORPORATION, priority 2019, published 2023)
